Measured values taken from patent publication US9266904B2, “6-bridged heteroaryldihydropyrimidines for the treatment and prophylaxis of hepatitis B virus infection” (priority 2013, dated 2016).
Converted amounts (≈) assume the structure as drawn.

Legend:
[1] = Lyophilisation solubility assay (Lysa); assay type: physicochemical; conditions: pH 6.5, aqueous buffer, thermodynamic from solid
Outline: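 DMSO was evaporated from 10 mM stocks, and residues were taken up in 0.05 M phosphate buffer pH 6.5, stirred 1 h, shaken 2 h and left overnight. Filtrates were quantified by UV or HPLC-UV against a four-point calibration, in duplicate. Values are in μg/ml, with a lower-bound value when >80% dissolved.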

[2] = system: HBV replication in HepG2.2.15 cells; assay: Anti-HBV activity in vitro in HepG2.2.15 cells (extracellular HBV DNA by qPCR); assay type: cell-based; conditions: Hepatitis B virus, HepG2.2.15, Anti-HBV activity in HepG2.2.15 cells; read-out: EC50
Outline: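 Constitutively HBV-producing HepG2.2.15 cells were seeded overnight at 37 °C, then treated with half-log serial dilutions of compound (0.5% DMSO final) for five days. Supernatant HBV DNA was extracted and quantified by qPCR; EC50 is the concentration inhibiting HBV replication by 50%.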

CYP3A4 = conditions: human, 24 h
Method: Human cryopreserved hepatocytes (Life Technologies, Carlsbad, USA) were thawed and cultured in collagen I coated 96-well plates with a density of 52,000 cells/well. After attachment, medium was changed and cells were pre-cultured overnight in hepatocyte maintenance medium (HMM; Lonza, Switzerland).
Test compounds were dosed to the cells next morning at an indicated concentration (up to 10 μM) in HMM culture media containing gentamycin and a constant 0.1% DMSO. Similarly, dilutions of the positive inducer compounds omeprazole (prototypical inducer of human CYP1A2; final concentrations: 1 and 10 μM), phenobarbital (prototypical inducer of human CYP2B6; final concentrations: 100 and 1000 μM) and rifampicin (prototypical inducer of human CYP3A4; final concentrations: 1 and 10 μM) were prepared from 1000 fold DMSO stock solutions in HMM containing gentamycin. Medium change was then performed and cells were exposed for 24 hours to test compounds, positive inducer compounds, or vehicle (0.1% DMSO), respectively.
At the end of the compound exposure period, medium was removed and cells lysed using 100 μL/well MagNA Pure LC RNA isolation tissue lysis buffer (Roche Diagnostics AG, Rotkreuz, Switzerland). Plates were then sealed and frozen at −80° C. until further workup.
mRNA isolation was performed using the MagNA Pure 96 system (Roche Diagnostics AG, Rotkreuz, Switzerland) and the respective cellular RNA large volume kit (Roche Diagnostics AG, Rotkreuz, Switzerland) from thawed samples diluted 1:1 with PBS. The volume of the cell lysis and an elution volume of 100 μL were used. 20 μL of the resulting mRNA suspension was then used for reverse transcription using 20 μL of the transcript or first stand cDNA synthesis kit (Roche prime Supply, Mannheim, Germany). The resulting cDNA was diluted with 40 μL of H2O before using for qRT-PCR. qRT-PCR was performed by using the forward and the reverse primer, the corresponding UPL (all from Microsynth, Balgach, Switzerland) and the Taqman Fast advanced master mix (Applied Biosystems), on an ABI 7900 machine (Applied Biosystems).
qRT-PCR Ct-values for the respective P450s were put into relation to the Ct-value of RN18S1 (microsynth, Balgach, Switzerland) of the same sample. Doing so, a respective Δct-value was calculated. Using the average of all Δct-values for the vehicle control samples, a ΔΔct-value was calculated for each sample (ΔΔct-value(sample)=Δct-value(sample)−average of Δct-value of all vehicle controls). The fold induction of the respective sample was calculated as 2^(−ΔΔct). The individual fold induction values were then averaged per treatment condition (usually n=3 biological replicates).
Relative induction values to the respective positive inducer compound condition (10 μM omeprazole for CYP1A2; 1000 μM Phenobarbital for CYP2B6; 10 μM rifampicin for CYP3A4) were then calculated from the fold induction values as follows: Relative induction(%)=100×(T−V)/(P−V)
T: fold induction of test compound condition
P: fold induction of positive inducer compound
V: fold induction of vehicle controls

[3] = Cytotoxicity (CCK-8 cell viability) and selectivity index; assay type: cell-based, human; conditions: human, HepDE19 cells; cytotoxicity, concentration resulting in death of 50% of host cells
Outline: (§1)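 HepDE19 cells (5×10^3/well) were treated with compounds as for the EC50 runs and, after 5 days, given CCK-8 for 2 h at 37° C. Absorbance was read at OD450 and OD630, and CC50 was taken as the concentration killing 50% of host cells.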

HepDE19 cells = assay: as above; assay type: cell-based, human; conditions: CC50 value/EC50 value
Outline: as §1

[4] = Human microsomal clearance assay; assay type: in vitro ADME; conditions: human, 1 μM, pH 7.4
Outline: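 Liver microsomes (0.5 mg/mL protein) were incubated with 1 μM compound at 37 °C, pH 7.4 phosphate, with an NADPH-regenerating system. Samples at 0-30 min were quenched and measured by LC-MS/MS for parent loss. No-NADPH controls were included.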

Row | SMILES | solubility thermodynamic [1] | EC50 [2] | % of Positive control (10 μM Rifampicin) (CYP3A4) | CC50 at 5 days [3] | Selectivity index (CC50/EC50) (HepDE19 cells) | CLh [4]
1 | COC(=O)C1=C(CN2C3COCC2CN(C)C3)NC(c2nccs2)=N[C@H]1c1ccc(F)cc1Cl [Example 12, (R)-4-(2-Chloro-4-fluoro-phenyl)-6-(7-methyl-3-oxa-7,9-diaza-bicyclo[3.3.1]non-9-ylmethyl)-2-thiazol-2-yl-1,4-dihydro-pyrimidine-5-carboxylic acid methyl ester] | > 597 µg/mL | 566 nM | 21% |  |  | 
2 | COC(=O)C1=C(CN2C3COCC2c2cn[nH]c2C3)NC(c2nccs2)=N[C@H]1c1ccc(F)cc1Cl (stereo partly drawn) [Example 31, (R)-4-(2-Chloro-4-fluoro-phenyl)-6-(10-oxa-4,5,12-triaza-tricyclo[6.3.1.0*2,6*]dodeca-2(6),3-dien-12-ylmethyl)-2-thiazol-2-yl-1,4-dihydro-pyrimidine-5-carboxylic acid methyl ester] |  | 35 nM | 25% |  |  | 
3 | COC(=O)C1=C(CN2CC3CC(C2)O3)NC(c2nccs2)=N[C@H]1c1ccc(F)cc1Cl [Example 38, (R)-4-(2-Chloro-4-fluoro-phenyl)-6-(6-oxa-3-aza-bicyclo[3.1.1]hept-3-ylmethyl)-2-thiazol-2-yl-1,4-dihydro-pyrimidine-5-carboxylic acid methyl ester] |  | 114 nM | 35% |  |  | 
4 | COC(=O)C1=C(CN2[C@@H]3COC[C@H]2C[C@H](CC(=O)O)C3)NC(c2nccs2)=N[C@H]1c1cccc(F)c1Cl [Example 59, Exo-2-[(1S,5R)-9-[[(4R)-4-(2-chloro-3-fluoro-phenyl)-5-methoxycarbonyl-2-thiazol-2-yl-1,4-dihydropyrimidin-6-yl]methyl]-3-oxa-9-azabicyclo[3.3.1]nonan-7-yl]acetic acid] | > 732 µg/mL | 15.6 nM |  | > 100000 nM | >6410 | 2.1 mL/min/kg
5 | COC(=O)C1=C(CN2[C@H]3COC[C@@H]2[C@H](CC(=O)O)C3)NC(c2nccs2)=N[C@H]1c1ccc(F)cc1Br [Example 64, 2-[(1R,5S,6S)-8-[[(4R)-4-(2-bromo-4-fluoro-phenyl)-5-methoxycarbonyl-2-thiazol-2-yl-1,4-dihydropyrimidin-6-yl]methyl]-3-oxa-8-azabicyclo[3.2.1]octan-6-yl]acetic acid] | 660 µg/mL (≈ 1140 µM) | 16.6 nM |  | > 100000 nM | >6024 | 2.6 mL/min/kg
6 | CCOC(=O)C1=C(CN2[C@@H]3COC[C@H]2C[C@@H](CC(=O)O)C3)NC(c2nccs2)=N[C@H]1c1cccc(F)c1Cl [Example 65, Endo-2-[(1S,5R)-9-[[(4R)-4-(2-chloro-3-fluoro-phenyl)-5-ethoxycarbonyl-2-thiazol-2-yl-1,4-dihydropyrimidin-6-yl]methyl]-3-oxa-9-azabicyclo[3.3.1]nonan-7-yl]acetic acid] | 375 µg/mL (≈ 666 µM) | 11.8 nM |  | 71000 nM | 5980 | 2.8 mL/min/kg
7 | CCOC(=O)C1=C(CN2[C@@H]3COC[C@H]2C[C@H](CC(=O)O)C3)NC(c2nccs2)=N[C@H]1c1ccc(F)cc1Br [Example 67, Exo-2-[(1S,5R)-9-[[(4R)-4-(2-bromo-4-fluoro-phenyl)-5-ethoxycarbonyl-2-thiazol-2-yl-1,4-dihydropyrimidin-6-yl]methyl]-3-oxa-9-azabicyclo[3.3.1]nonan-7-yl]acetic acid] | 319 µg/mL (≈ 525 µM) | 4 nM |  | > 100000 nM | >25000 | 2.9 mL/min/kg
8 | CCOC(=O)C1=C(CN2[C@@H]3COC[C@H]2C[C@H](CC(=O)O)C3)NC(c2nccs2)=N[C@H]1c1ccccc1Cl [Example 72, Exo-2-[(1S,5R)-9-[[(4R)-4-(2-chlorophenyl)-5-ethoxycarbonyl-2-thiazol-2-yl-1,4-dihydropyrimidin-6-yl]methyl]-3-oxa-9-azabicyclo[3.3.1]nonan-7-yl]acetic acid] | 640 µg/mL (≈ 1170 µM) | 13.2 nM |  | > 100000 nM | >7576 | 2.8 mL/min/kg
9 | COC(=O)C1=C(CN2[C@@H]3COC[C@H]2C[C@H](CC(=O)O)C3)NC(c2nccs2)=N[C@H]1c1cccc(F)c1Br [Example 74, Exo-2-[(1S,5R)-9-[[(4R)-4-(2-bromo-3-fluoro-phenyl)-5-methoxycarbonyl-2-thiazol-2-yl-1,4-dihydropyrimidin-6-yl]methyl]-3-oxa-9-azabicyclo[3.3.1]nonan-7-yl]acetic acid] | > 621 µg/mL | 10.9 nM |  | > 100000 nM | >9174 | 0.5 mL/min/kg
10 | CCOC(=O)C1=C(CN2[C@@H]3COC[C@H]2C[C@H](CC(=O)O)C3)NC(c2nccs2)=N[C@H]1c1ccccc1Br [Example 77, Exo-2-[(1S,5R)-9-[[(4R)-4-(2-bromophenyl)-5-ethoxycarbonyl-2-thiazol-2-yl-1,4-dihydropyrimidin-6-yl]methyl]-3-oxa-9-azabicyclo[3.3.1]nonan-7-yl]acetic acid] | 491 µg/mL (≈ 833 µM) | 14 nM |  | > 100000 nM | >7143 | 1.3 mL/min/kg
11 | CCOC(=O)C1=C(CN2[C@@H]3COC[C@H]2C[C@H](CC(=O)O)C3)NC(c2nccs2)=N[C@H]1c1ccc(F)c(F)c1C [Example 78, Exo-2-[(1S,5R)-9-[[(4S)-4-(3,4-difluoro-2-methyl-phenyl)-5-ethoxycarbonyl-2-thiazol-2-yl-1,4-dihydropyrimidin-6-yl]methyl]-3-oxa-9-azabicyclo[3.3.1]nonan-7-yl]acetic acid] | 111 µg/mL (≈ 198 µM) | 2 nM |  | 73000 nM | 36515 | 1.9 mL/min/kg
12 | COC(=O)C1=C(CN2[C@@H]3CC[C@@]2(C(=O)O)COC3)NC(c2nccs2)=N[C@H]1c1ccc(F)cc1Cl [Example 82, (1R,5S)-8-[[(4R)-4-(2-chloro-4-fluoro-phenyl)-5-methoxycarbonyl-2-thiazol-2-yl-1,4-dihydropyrimidin-6-yl]methyl]-3-oxa-8-azabicyclo[3.2.1]octane-5-carboxylic acid] | > 628 µg/mL | 13.1 nM |  | > 100000 nM | >7634 | 0 mL/min/kg
13 | CCOC(=O)C1=C(CN2C3CCC2(C(=O)O)COC3)NC(c2nccs2)=N[C@H]1c1cccc(F)c1Cl (stereo partly drawn) [Example 83, 8-[[(4R)-4-(2-chloro-3-fluoro-phenyl)-5-ethoxycarbonyl-2-thiazol-2-yl-1,4-dihydropyrimidin-6-yl]methyl]-3-oxa-8-azabicyclo[3.2.1]octane-5-carboxylic acid] | 564 µg/mL (≈ 1050 µM) | 8.6 nM |  | 65000 nM | 7558 | 1.6 mL/min/kg
14 | COC(=O)C1=C(CN2[C@@H]3CC[C@@]2(C(=O)O)COC3)NC(c2nccs2)=N[C@H]1c1ccc(F)c(F)c1C [Example 85, (1R,5S)-8-[[(4S)-4-(3,4-difluoro-2-methyl-phenyl)-5-methoxycarbonyl-2-thiazol-2-yl-1,4-dihydropyrimidin-6-yl]methyl]-3-oxa-8-azabicyclo[3.2.1]octane-5-carboxylic acid] | > 639 µg/mL | 6.6 nM |  | > 100000 nM | >15152 | 1.3 mL/min/kg
15 | COC(=O)C1=C(CN2[C@@H]3C[C@@H](CC(=O)O)C[C@H]2C(F)(F)C3)NC(c2nccs2)=N[C@H]1c1ccc(F)cc1Cl [Example 109, 2-[(1R,3R,5S)-8-[[(4R)-4-(2-chloro-4-fluoro-phenyl)-5-methoxycarbonyl-2-thiazol-2-yl-1,4-dihydropyrimidin-6-yl]methyl]-6,6-difluoro-8-azabicyclo[3.2.1]octan-3-yl]acetic acid] | 107 µg/mL (≈ 188 µM) | 1.7 nM |  | > 100000 nM | >58824 | 7.2 mL/min/kg
16 | CCOC(=O)C1=C(CN2C3COCC2C(F)(F)[C@H](CC(=O)O)C3)NC(c2nccs2)=N[C@H]1c1cccc(F)c1Cl (stereo partly drawn) [Example 130, 2-[(7S)-9-[[(4R)-4-(2-chloro-3-fluoro-phenyl)-5-ethoxycarbonyl-2-thiazol-2-yl-1,4-dihydropyrimidin-6-yl]methyl]-6,6-difluoro-3-oxa-9-azabicyclo[3.3.1]nonan-7-yl]acetic acid] | 219 µg/mL (≈ 366 µM) | 6.4 nM |  | 69000 nM | 10830 | 5.0 mL/min/kg
